This is an account of results in publication PMC12655338, “Reversing the Warburg Effect: YW3-56 Induces Leukemia Differentiation via AKT-Mediated Glucose Metabolic Reprogramming” (Pharmaceuticals, 2025).

By IC50 is commonly meant the concentration at which inhibition is half-maximal. A lower IC50 goes with greater potency.

In the assay the target is T1, PAD4 (Protein arginine deiminase 4) (Homo sapiens, UniProt Q9UM07).
T1 construct: gene PADI4
Briefly: colorimetric PAD4 enzyme assay, citrullination of BAEE. In kind it is biochemical.

T1 sequence (Q9UM07 whole entry): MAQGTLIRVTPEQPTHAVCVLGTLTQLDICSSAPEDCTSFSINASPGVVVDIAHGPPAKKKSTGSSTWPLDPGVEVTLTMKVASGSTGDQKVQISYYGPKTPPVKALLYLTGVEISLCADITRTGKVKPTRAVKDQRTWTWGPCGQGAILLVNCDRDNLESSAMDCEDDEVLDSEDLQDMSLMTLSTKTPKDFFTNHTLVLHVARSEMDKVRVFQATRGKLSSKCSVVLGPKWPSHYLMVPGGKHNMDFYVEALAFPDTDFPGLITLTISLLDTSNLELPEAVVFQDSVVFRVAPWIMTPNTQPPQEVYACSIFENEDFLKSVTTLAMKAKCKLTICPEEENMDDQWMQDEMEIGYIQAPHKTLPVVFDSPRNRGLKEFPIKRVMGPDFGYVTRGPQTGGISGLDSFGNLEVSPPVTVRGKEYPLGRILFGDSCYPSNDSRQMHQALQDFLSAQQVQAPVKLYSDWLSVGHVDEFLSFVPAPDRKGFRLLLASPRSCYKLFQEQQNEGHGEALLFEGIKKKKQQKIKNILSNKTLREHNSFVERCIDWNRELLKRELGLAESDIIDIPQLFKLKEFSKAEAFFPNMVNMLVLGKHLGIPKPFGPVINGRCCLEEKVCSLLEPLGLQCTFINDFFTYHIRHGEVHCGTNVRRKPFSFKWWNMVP

With `CN(C)c1ccc2cc(C(=O)N[C@@H](CCCNC(=N)CCl)C(=O)NCc3ccccc3)ccc2c1` [YW3-56], the IC50 came out at 4.1 ± 0.28 µM.
